Source: patent US20240316038A1, “APOL1 INHIBITORS AND METHODS OF USE” (Maze Therapeutics, Inc., priority 2021, published 2024)

Columns and labels:
APOL1 G2 [1] = molecular target: T1, APOL1 G2 (Homo sapiens, UniProt O14791, DEL388-389); experiment: Rescue of HEK293 cell death caused by overexpression of APOL1 (CellTiter-Glo luminescence), HEK293/T-REx APOL1 G2/clone #2; type: cell-based; settings: reversal of cell death caused by overexpression of APOL1; geometric mean of at least 2 assay runs, † = single assay run (technical duplicate)
T1 construct: expressed in transfected cells; host or cells: HEK293 T-REx clonal lines: HEK T-REx/GCaMP6f/APOL1 G2 K6.3 in A1, HEK293/T-REx APOL1 G2/clone #2 in A2
T1 sequence (O14791 with tags, fused parts or gaps DEL388-389): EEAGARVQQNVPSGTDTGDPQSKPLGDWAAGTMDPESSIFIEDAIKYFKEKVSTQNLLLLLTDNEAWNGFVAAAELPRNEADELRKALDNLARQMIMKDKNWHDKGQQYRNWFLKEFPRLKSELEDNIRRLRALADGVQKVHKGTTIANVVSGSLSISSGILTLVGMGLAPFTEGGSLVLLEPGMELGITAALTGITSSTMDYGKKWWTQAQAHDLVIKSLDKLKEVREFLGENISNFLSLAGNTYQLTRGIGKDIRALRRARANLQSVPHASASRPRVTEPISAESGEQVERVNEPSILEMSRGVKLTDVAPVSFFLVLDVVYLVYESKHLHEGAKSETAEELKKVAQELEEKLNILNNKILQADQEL
Protocol: A HEK293 clonal cell line overexpressing APOL1 G2 (HEK293/T-REx APOL1 G2/clone #2) was maintained in 1×DMEM-GlutaMax (Gibco, 10569-010) media with 10% tetracycline-free FBS (Takara Bio USA, 631101), 5 μg/mL Blasticidin (Gibco, A1113903), and 100 μg/mL Zeocin (Invitrogen, R25001) in T75 flasks. In preparation for the assay, this media was aspirated and 2 mL of prewarmed TrypLE Express (Gibco, 12605-010) was added to a flask to detach cells. The flask was then incubated (humidified, 37° C. with 5% CO2) for 3-5 minutes. Afterwards, 8 mL of prewarmed cell assay media (lx DMEM-GlutaMax media with 10% tetracycline-free FBS) was added to the trypsinized cells. The suspension was gently mixed, and cells were counted using a Countess Cell Counting Chamber (Invitrogen). The suspension was diluted using cell assay media to generate a working stock solution (166,667 cells/mL). Using a MultiDrop Combi (Thermo Electron Corp), 30 μL (final cell density=5,000 cells/well) of the working stock solution was dispensed into each well of white 384-well assay ready plates (Nunc™, 164610) containing 6 ng/mL doxycycline, to induce APOL1 expression, and compound. All compounds were plated in a duplicate 8-point dilution series that consisted of 3-fold stepwise dilutions (0.5% DMSO final). Assay plates were incubated (humidified, 37° C. with 5% CO2) for 17 hours. After the incubation, the plates were equilibrated at room temperature for 1 hour. Next, 15 μl of CellTiter-Glo® reagent (Promega, G7570) was added to each well using a MultiDrop Combi. Plates were placed on an orbital shaker (500 rpm) for 5 minutes to induce cell lysis and then incubated at room temperature for 10 minutes. Luminescence was measured on an Envision plate reader. Collaborative Drug Discovery software was utilized for graphing data. Plots were generated using a four parameter logistic curve fit.
Table B2 below provides the results from this experiment. Unless otherwise specified, EC50 values are reported as the geometric mean of at least 2 assay runs on separate days. Each run represents the average of a technical replicate, where each compound was assayed twice in the same plate. A superscript t symbol indicates a value from the average of a technical replicate from a single assay run, where each compound was assayed twice in the same plate. Compounds in Table B2 are referred to by the corresponding Compound Number in Table 1, which is also referred to in the synthetic examples. When one or more of the numbered compounds are identified by stereochemistry (for example, (R)- or (S)—), the specific stereoisomer for which data is provided in Table B2 may be identified by the elution order of such compound as described in the synthetic examples. To illustrate, Compound 2 is the first-eluting enantiomer of step 4 of Example 1 and Compound 3 is the second-eluting enantiomer of step 4 of Example 1. Further, by way of illustration, Compound 27 is the first-eluting enantiomeric mixture in step 4 of Example 7 and Compound 28 is the second-eluting enantiomeric mixture in step 4 of Example 7. Then, Compound 27 is separated into Compound 29 (the first-eluting enantiomer) and Compound 30 (the second-eluting enantiomer) in Example 8, and Compound 28 is separated into Compound 31 (the first-eluting enantiomer) and Compound 32 (the second-eluting enantiomer) in Example 8. Absolute stereochemistry of such compounds may be identified by methods known in the art.
Rescue EC50 values reported in Table B2 below represent the half-maximal effective concentration for reversal of cell death caused by overexpression of APOL1.

APOL1 G2 [2] = molecular target: T1, APOL1 G2; experiment: APOL1 calcium transport inhibition assay (GCaMP6f calcium influx, FLIPR) in HEK T-REx/GCaMP6f/APOL1 G2 K6.3 cells; type: cell-based; settings: inhibition of APOL1-mediated calcium influx; geometric mean of at least 2 assay runs, † = single assay run (technical duplicate)
Protocol: A HEK293 clonal cell line was generated to stably express GCaMP6f, a genetically encoded calcium indicator, and inducibly express APOL1 G2 (HEK T-REx/GCaMP6f/APOL1 G2 K6.3). Cells were maintained in the following standard complete medium: DMEM with 4.5 g/L glucose and sodium pyruvate (BioWhittaker, Lonza, BE12-614F), supplemented with 10% FBS Performance Plus (Gibco, 16000044), 1% penicillin-streptomycin (BioWhittaker, DE17-602E), 2 mM ultraglutamine-1 (BioWhittaker cat. BE 17-605/U1), 50 μg/mL Zeocin (InvivoGen, ant-zn), 2.5 μg/mL Blasticidin (InvivoGen, ant-bl-5), and 25 μg/mL Hygromycin (InvivoGen, ant-hg). Standard propagation conditions consisted of plating 9×10^6, 4×10^6, 2×10^6 cells in a T225 flasks to be processed after 2, 3, or 4 days, respectively.
A source plate was generated containing 20 serially diluted compounds in DMSO (duplicate 8-point dose response). Next, 0.8 μL of compounds were transferred from the source plate to a destination plate prefilled with 79.2 μL of Ca^2+ free Tyrode's buffer (130 mM NaCl, 5 mM KCl, 1 mM MgCl2, 5 mM NaHCO3, 20 mM HEPES at pH 7.4). The destination plate was placed on a plate shaker (5 seconds at 2000 rpm) to mix. […] All transfer and mixing steps were conducted with an CyBi®-Well dispenser.
Cells were split by gently washing with DPBS (Euroclone, ECB4004L), followed by a 5-minute incubation (humidified, 37° C. with 5% CO2) with trypsin-EDTA solution (Euroclone, ECB3052D). Detached cells were diluted with standard complete medium without selective agents, counted, and plated in a 384 MTP microplate (GR4332CPL, Twin Helix) (10,000 cells/well in 25 μl/well) using a MATRIX WellMate dispenser. Plates were placed into a humidified incubator (37° C. with 5% CO2) overnight. The following day, 20 μL of doxycycline (Sigma, D9891) at 20 ng/mL in standard complete medium was added to cells with a CyBi @Drop dispenser to induce APOL1 G2 expression. After a 6-hour incubation (humidified, 37° C. with 5% CO2), cells were washed 3 times with Ca^2+ free Tyrode's Buffer (130 mM NaCl, 5 mM KCl, 1 mM MgCl2, 5 mM NaHCO3, 20 mM HEPES at pH 7.4) using a BIOTEK Microplate washer, such that 10 μL of buffer remained in each well after the final wash. Assay plates were then stored at room temperature for 10 minutes. Next, 10 μL of diluted compounds were transferred to the assay plate from the 2× compound plate using a CyBi®-Well dispenser. Compound incubation was then carried out at room temperature for 10 minutes. The assay plate was transferred to the […] and 20 μL of 10 mM Ca^2+ (final concentration=5 mM) Tyrode's buffer was injected.
Table B1 below summarizes the data from this experiment. Unless otherwise specified, AC50 and values are reported as the geometric mean of at least 2 assay runs on separate days. Each run represents the average of a technical replicate, where each compound was assayed twice in the same plate. A superscript † symbol indicates a value from the average of a technical replicate from a single assay run, where each compound was assayed twice in the same plate.
The AC50 values in Table B1 below reflect the compound's ability to prevent calcium influx by inhibiting APOL1. […] Compounds in Table B1 are referred to by the corresponding Compound Number in Table 1, which is also referred to in the synthetic examples. When one or more of the numbered compounds are identified by stereochemistry (for example, (R)- or (S)—), the specific stereoisomer for which data is provided in Table B1 may be identified by the elution order of such compound as described in the synthetic examples. To illustrate, Compound 2 is the first-eluting enantiomer of step 4 of Example 1 and Compound 3 is the second-eluting enantiomer of step 4 of Example 1. Further, by way of illustration, Compound 27 is the first-eluting enantiomeric mixture in step 4 of Example 7 and Compound 28 is the second-eluting enantiomeric mixture in step 4 of Example 7. […]

| Compound | EC50 (APOL1 G2 [1]) | AC50 (APOL1 G2 [2]) |
| --- | --- | --- |
| CS(=O)(=O)c1ccc(OC[C@H](O)CNC(Cc2cccc(Cl)c2)C2CC2)cc1 (stereo partly drawn) [Compound 102, (2R)-1-((2-(3-chlorophenyl)-1-cyclopropylethyl)a-mino)-3-(4-(methylsulfonyl)phe-noxy)propan-2-ol] | > 21800 nM | 2190 nM |
| C[C@@H]1CN(CC(O)c2cccc(C#N)c2)C[C@H]1COc1ccc(S(C)(=O)=O)cc1 (single isomer, unassigned) [Compound 128, 3-[(1R or 1S)-1-hydroxy-2-[(35,4S)-3-[(4-methanesulfonylphenoxy)methyl]-4-methylpyrrolidin-1-ylethyl]benzonitrile] | 366 nM | 349 nM |
| CC(CN1C[C@@H](COc2ccc(S(C)(=O)=O)cc2)[C@H](C)C1)c1cc(Cl)cc(C#N)c1 (single isomer, unassigned) [Compound 147, 3-chloro-5-[(2R or 2S)-1-[(3S, 4S)-3-[(4-meth-anesulfonylphen-oxy)methyl]-4-methylpyrroli-din-1-yl]propan-2-yl]benzonitrile] | 618 nM | 1110 nM |
| CC1CC(COc2ccc(S(C)(=O)=O)cc2)CN1CCc1cccc(Cl)c1 (single isomer, unassigned) [Compound 53, rac-trans or cis-1-(3-chlorophenethyl)-2-methyl-4-((4-(methylsulfonyl)phenoxy)methyl)pyrrolidine] | 1120 nM | 856 nM |
| CS(=O)(=O)c1ccc(OCC2CN(CCc3cccc(Cl)c3)CCC2O)cc1 (racemic) [Compound 27, rac-trans or cis-1-(3-chlorophenethyl)-3-((4-(methylsulfonyl)phenoxy)methyl)piperidin-4-ol] | 2130 nM | 1500 nM |
| C[C@@H]1CN(CCc2cc(F)cc(C#N)c2)C[C@H]1COc1ccc(S(C)(=O)=O)cc1 [Compound 195, 3-fluoro-5-{2-[(3S,4S)-3-[(4-methanesulfonylphenoxy)methyl]-4-methylpyrrolidin-1-yl]ethyl}benzonitrile] | 226 nM | 236 nM |
| COCCS(=O)(=O)c1ccc(OC[C@H]2CN(CCc3cccc(Cl)c3)C[C@@H]2C)cc1 (single isomer, unassigned) [Compound 110, (3R,4R or 3S,4S)-1-[2-(3-chlorophenyl)ethyl]-3-{[4-(2-methoxyethane-sulfonyl)phenoxy]methyl}-4-methylpyrrolidine] | 135 nM | 91.4 nM |
| CN=S(C)(=O)c1ccc(OC[C@H]2C[C@@H](C)N(CCc3cccc(C#N)c3)C2)cc1 (single isomer, unassigned) [Compound 158, 3-{2-[(2R,4S)-2-methyl-4-({4-[(R or S)methyl(methyli-mino)oxo-λ^6-sulfanyl]phenoxy}methyl)pyrrolidin-1-yl]ethyl}benzonitrile] | 39 nM | 352 nM |
| C[C@@H]1CN(CCc2cc(Cl)cc(C#N)c2)C[C@H]1COc1ccc(S(C)(=O)=O)cc1 [Compound 194, 3-chloro-5-{2-[(3S,4S)-3-[(4-methanesulfonylphenoxy)methyl]-4-methylpyrrolidin-1-yl]ethyl}benzonnitrile] | 107 nM | 151 nM |
| CC1CC(COc2ccc(S(C)(=O)=O)cc2)CN1CCc1cccc(Cl)c1 (single isomer, unassigned) [Compound 58, (2S,4S) or (2R,4S) or (2R,4R) or (2S,4R)-1-(3-chlorophenethyl)-2-methyl-4-((4-(methylsulfonyl)phenoxy)methyl)pyrrolidine] | < 41 nM | 72.7 nM |
| CS(=O)(=O)c1ccc(OC[C@@H](O)CNCCc2cccc(Cl)c2)cc1 [Compound 93, (S)-1-((3-chlorophenethyl)a-mino)-3-(4-(methylsulfonyl)phe-noxy)propan-2-ol] | > 30000 nM | 6540 nM |
| CN(c1ccc(OC[C@H](O)CN2CCOC(c3cccc(Cl)c3)C2)cc1)S(C)(=O)=O (single isomer, unassigned) [Compound 85, N-(4-((R)-3-((S) or (R)-2-(3-chlorophenyl)morpho-lino)-2-hydroxypropoxy)phe-nyl)-N-methylmethanesulfon-amide] | > 18000 nM | 8480 nM |
